The text below walks through data of patent publication US20110190365A1, “Insecticidal 4-phenyl-1H-pyrazoles” (Bayer Crop Science AG, priority 2008, published 2011).

Data set [1] deals with stage 3 Spodoptera litura larvae. Briefly: Spodoptera litura larvae test. Type of data set: in vivo. The settings on record: active compound concentration 500 ppm, sweet potato leaf dip, after 7 days, mean of two dishes. The procedure:
Spodoptera litura Larvae Test
(§1) Solvent: 3 parts by weight of dimethylformamide Emulsifier: 1 part by weight of polyoxyethylene alkylphenyl ether
To prepare a suitable active compound, 1 part by weight of active compound is mixed with the stated amount of solvent comprising the stated amount of emulsifier, and the mixture is diluted with water to the specified concentration.
Sweet potato leaves are dipped into the sample solution diluted with water to the specified concentration and the leaves treated in this manner are, after the solution adhering to the leaves has dried in air, transferred into a laboratory dish which has a diameter of 9 cm and in which there are 10 stage 3 Spodoptera litura larvae. The dish is then placed in a temperature-controlled room at 25° C., sweet potato leaves are then added to the dish on day two and day four and the number of dead insects is determined after 7 days and used to calculate the insecticidal ratio.
The results are the means of two laboratory dishes per group in this test.

In data set [2] the test system is stage 2 Aulacophora femoralis larvae. Description: Aulacophora femoralis test (spray test). As to conditions: active compound concentration 500 ppm, cucumber leaf dip, after 7 days. Type of data set: in vivo. On the procedure:
Aulacophora femoralis Test (Spray Test)
as §1
To prepare a suitable active compound formulation, 1 part by weight of the active compound is mixed with the stated amount of solvent comprising the stated amount of emulsifier, and the mixture is diluted with water to a specified concentration.
Cucumber leaves are dipped into a dilute aqueous solution of an active compound at the specified concentration prepared in the same manner as in the test described above, air-dried and transferred into a plastic dish with sterilized black soil. 5 stage 2 Aulacophora femoralis larvae are transferred into this dish. The dish is then placed into a temperature-controlled room at 25° C. After 7 days, the number of dead larvae is counted to calculate the mortality.

Data set [3] can be described thus: log P by HPLC on a reversed-phase column (C18), EEC Directive 79/831 Annex V.A8. Type of data set: physicochemical. On the procedure: The stated log P values were determined in accordance with EEC Directive 79/831 Annex V.A8 by HPLC (High Performance Liquid Chromatography) using a reversed-phase column (C18).
For data set [4], the system named is larvae of the mustard beetle (Phaedon cochleariae). Description: Phaedon cochleariae test (PHAECO spray treatment). Type of data set: in vivo. As to conditions: application rate 500 g/ha, Chinese cabbage leaf discs sprayed, after 7 days; for pest or weed control at 500 g/ha: Phaedon cochleariae, foliar, 168 h, read-out: effect in % (beetle larvae killed). The procedure: Phaedon cochleariae Test (PHAECO Spray Treatment)
(§2) Solvent: 78.0 parts by weight of acetone • • 1.5 parts by weight of dimethylformamide Emulsifier: 0.5 part by weight of alkylaryl polyglycol ether
(§3) To produce a suitable preparation of active compound, 1 part by weight of active compound is mixed with the stated amounts of solvent and emulsifier, and the concentrate is diluted with emulsifier-containing water to the desired concentration.
Discs of Chinese cabbage (Brassica pekinensis) are sprayed with an active compound preparation of the desired concentration and, after drying, populated with larvae of the mustard beetle (Phaedon cochleariae).
After 7 days, the effect in % is determined. 100% means that all beetle larvae have been killed; 0% means that none of the beetle larvae have been killed.

Data set [5] deals with caterpillars of the armyworm (Spodoptera frugiperda). Briefly: Spodoptera frugiperda test (SPODFR spray treatment). Type of data set: in vivo. As to conditions: application rate 500 g/ha, maize leaf discs sprayed, after 7 days. On the procedure:
Spodoptera frugiperda Test (SPODFR Spray Treatment)
as §2, §3
Discs of maize leaves (Zea mays) are sprayed with an active compound preparation of the desired concentration and, after drying, populated with caterpillars of the armyworm (Spodoptera frugiperda).
After 7 days, the effect in % is determined 100% means that all caterpillars have been killed; 0% means that none of the caterpillars have been killed.

For data set [6], the system named is green peach aphid (Myzus persicae). Description: Myzus persicae test (MYZUPE spray treatment). Type of data set: in vivo. The settings on record: application rate 500 g/ha, Chinese cabbage leaf discs sprayed, after 6 days. The procedure: Myzus persicae Test (MYZUPE Spray Treatment)
as §2, §3
Discs of Chinese cabbage (Brassica pekinensis) infected by all stages of the green peach aphid (Myzus persicae) are sprayed with an active compound preparation of the desired concentration.
After 6 days, the effect in % is determined. 100% means that all of the aphids have been killed; 0% means that none of the aphids have been killed.

Setting [7] is: HPLC, reversed-phase C18, mobile phase with formic acid.
The mark [8] stands for this setting: HPLC, reversed-phase C18, mobile phase with formic acid, read-out: log P (HCOOH).

Molecules are shown by their SMILES. Like-named read-outs stand apart in the source and are kept apart here.

With `O=C(NCC(F)(F)F)c1ccc(-n2cc(-c3cc(C(F)(F)F)cc(C(F)(F)F)c3)c(C(F)(F)F)n2)cc1C(F)(F)F` [I-A-Q2-010], the “kill of the insect larvae” value in data set [1] was found to be 100%. The “kill of the insects” value in data set [2] is 100%.

As for `CC(NC(=O)c1ccc(-n2cc(-c3cc(Cl)cc(Cl)c3)cn2)cc1C(F)(F)F)C(F)(F)F` (stereo not shown) [I-A-Q2-006], in data set [1], the “kill of the insect larvae” value was determined as 100%.

Take `N#Cc1cc(-n2nc(C(F)(F)F)c(-c3cc(Cl)cc(Cl)c3)c2N)ccc1-n1cnc(Cl)n1` [I-A-Q1-091]: in data set [3] (setting [7]), the “log P (HCOOH)” value was “I-A-Q1-091: log P (HCOOH): 4.17”. For the same compound, the “effect in % (beetle larvae killed)” value in data set [4] was found to be 100%. Besides, in data set [5], the “effect in % (caterpillars killed)” value is 100%.

Regarding `O=[N+]([O-])c1ccc(-n2cc(-c3cc(Cl)cc(Cl)c3)c(C(F)(F)F)n2)cc1C(F)(F)F` [I-A-Q4-006], the “kill of the insect larvae” value in data set [1] is on record as 80%.

As for `CCOC(=O)c1ccc(-n2cc(-c3cc(Cl)cc(Cl)c3)c(C(F)(F)F)n2)cc1C(F)(F)F` [I-A-Q4-001, Ethyl 4-[4-(3,5-dichlorophenyl)-3-trifluoromethylpyrazol-1-yl]-2-trifluoromethylbenzoate], the “kill of the insect larvae” value in data set [1] worked out at 80%.

Consider `O=C(NCc1ccccn1)c1ccc(-n2cc(-c3cc(Cl)cc(Cl)c3)c(C(F)(F)F)n2)cc1C(F)(F)F` [I-A-Q2-001], for which the “log P (pH 2)” value in data set [3] (pH 2) is on record as “I-A-Q2-001: log P (pH 2): 4.02”. Besides, the “log P (pH 7.5)” value in data set [3] (pH 7.5) is listed as “log P (pH 7.5): 4.74”. Also, the “kill of the insect larvae” value in data set [1] is 100%.

On to `Cc1cc(-n2nc(C(F)(F)F)c(-c3ccc(Cl)cc3Cl)c2N)ccc1C(=O)NC(C)c1ccccn1` (stereo not shown) [I-A-Q2-412], for which, in data set [3] (HCOOH), the “log P (HCOOH)” value is recorded as “I-A-Q2-412: log P (HCOOH): 3.29”. The “effect in % (beetle larvae killed)” value in data set [4] was found to be 100%.

On to `CSc1c(-c2cc(Cl)cc(Cl)c2)c(C(F)(F)F)nn1-c1ccc(C(=O)NC(C)C(F)(F)F)c(C)c1` (stereo not shown) [I-A-Q2-027, 4-[4-(3,5-Dichlorophenyl)-5-methylsulphanyl-3-trifluoromethylpyrazol-1-yl]-2-methyl-N-(2,2,2-trifluoro-1-methylethyl)benzamide], for which the chromatographic logP in data set [3] (setting [8]) is 5.48. For the same compound, the pest or weed control at 500 g/ha in data set [4] is over 80%.

In the case of `CSc1cc(-n2nc(C(F)(F)F)c(-c3cc(Cl)cc(Cl)c3)c2N)ccc1C(=O)NCc1ccccn1` [I-A-Q2-409], the “log P (HCOOH)” value in data set [3] (HCOOH) is “I-A-Q2-409: log P (HCOOH): 3.38”. Besides, in data set [5], the “effect in % (caterpillars killed)” value was determined as 83%.

For the compound `Nc1c(-c2cc(Cl)cc(Cl)c2)c(C(F)(F)F)nn1-c1ncc(C(=O)NCc2ccccn2)c(C(F)(F)F)n1` [I-A-Q2-020, N-(Pyridin-2-ylmethyl)-2-[5-amino-4-(3,5-dichlorophenyl)-3-trifluoromethylpyrazol-1-yl]-4-trifluoromethylpyrimidine-5-carboxamide], the chromatographic logP in data set [3] (setting [8]) is 3.54. Moreover, in data set [4], the pest or weed control at 500 g/ha is over 80%.

Take `Cc1cc(-n2nc(C(F)(F)F)c(-c3cc(Cl)cc(Cl)c3)c2Cl)ccc1C(=O)NC(C)C(F)(F)F` (stereo not shown) [I-A-Q2-022, 4-[5-Chloro-4-(3,5-dichlorophenyl)-3-trifluoromethylpyrazol-1-yl]-2-methyl-N-(2,2,2-trifluoro-1-methylethyl)benzamide]: the chromatographic logP in data set [3] (setting [8]) stood at 5.59. For the same compound, in data set [4], the pest or weed control at 500 g/ha is over 80%.

Take `N#Cc1cc(-n2nc(C(F)(F)F)c(-c3cc(Cl)cc(C(F)(F)F)c3)c2N)ccc1-n1cncn1` [I-A-Q1-001, 5-[5-Amino-4-(3-chloro-5-trifluoromethylphenyl)-3-trifluoromethylpyrazol-1-yl]-2-[1,2,4]triazol-1-ylbenzonitrile]: the chromatographic logP in data set [3] (setting [8]) amounted to 3.92. In data set [4], the pest or weed control at 500 g/ha was over 80%.

Take `O=C(NCc1ccccn1)c1ccc(-n2cc(-c3cc(Cl)cc(Cl)c3)c(C(F)(F)F)n2)cc1[N+](=O)[O-]` [I-A-Q2-003]: the “kill of the insect larvae” value in data set [1] was found to be 100%.

On to `N#Cc1cc(-n2nc(C(F)(F)F)c(-c3cc(Cl)cc(Cl)c3)c2N)ccc1-n1cnc(S)n1` [I-A-Q1-089], for which the “log P (HCOOH)” value in data set [3] (setting [7]) was “I-A-Q1-089: log P (HCOOH): 3.53”. Also, in data set [4], the “effect in % (beetle larvae killed)” value is 83%. Also, the “effect in % (aphids killed)” value in data set [6] worked out at 90%.

On to `CCS(=O)(=O)c1ncn(-c2ccc(-n3nc(C(F)(F)F)c(-c4cc(Cl)cc(Cl)c4)c3N)cc2C#N)n1` [I-A-Q1-087], for which, in data set [3] (setting [7]), the “log P (HCOOH)” value is reported as “I-A-Q1-087: log P (HCOOH): 3.78”. Moreover, the “effect in % (beetle larvae killed)” value in data set [4] was 100%.

`N#Cc1cc(-n2nc(C(F)(F)F)c(-c3cc(Cl)cc(C(F)(F)F)c3)c2N)ccc1-n1nc[nH]c1=O` [I-A-Q1-002, 5-[5-Amino-4-(3-chloro-5-trifluoromethylphenyl)-3-trifluoromethylpyrazol-1-yl]-2-(5-oxo-4,5-dihydro[1,2,4]triazol-1-yl)benzonitrile]: in data set [3] (setting [8]), the chromatographic logP is 3.45. The pest or weed control at 500 g/ha in data set [4] is over 80%.

Turning to `O=C(NCC(F)(F)F)c1ccc(-n2cc(-c3cc(Cl)cc(Cl)c3)c(C(F)(F)F)n2)cc1C(F)(F)F` [I-A-Q2-002, 4-[4-(3,5-Dichlorophenyl)-3-trifluoromethylpyrazol-1-yl]-N-(2,2,2-trifluoroethyl)-2-trifluoromethylbenzamide], the chromatographic logP is 5.16 in data set [3] (pH 2, read-out: log P (pH 2)) and 5.14 in data set [3] (pH 7.5, read-out: log P (pH 7.5)). For the same compound, in data set [1], the “kill of the insect larvae” value amounted to 100%. The “kill of the insects” value in data set [2] worked out at 100%.

For the compound `CC(NC(=O)c1ccc(-n2cc(-c3cc(Cl)cc(Cl)c3)c(C(F)(F)F)n2)cc1C(F)(F)F)C(F)(F)F` (stereo not shown) [I-A-Q2-005], the “kill of the insect larvae” value in data set [1] worked out at 100%. Besides, the “kill of the insects” value in data set [2] stood at 100%.
